The source of these data is ChEMBL document CHEMBL6121055, “Strategic Mutations in Designer Native Peptides Combat NLRP3 Inflammasome Activation in Neurodegenerative Disorders” (J Med Chem, 2025).

The test system of data set [1] is N9. In words: Inhibition of NLRP3 inflammasome activation mediated pyroptosis in LPS/tau-stimulated mouse N9 cells assessed as reduction in cell death at 5 to 30 uM by MTT assay. The format is cell-based. Conditions: dose 5-30 µM. Background: Formazan colour is commonly taken as a measure of viable cells.
Data set [2] concerns N9. In words: Inhibition of NLRP3 inflammasome activation in LPS/tau-stimulated mouse N9 cells assessed as reduction in IL-1beta secretion at 10 to 20 uM preincubated with LPS for 4 hrs followed by compound addition for 30 mins and measured after tau stimulation for 24 hrs by ELISA. The format is cell-based. Conditions: dose 10-20 µM, time 24.5 hrs. For orientation: ELISA stands for enzyme-linked immunosorbent assay.

Data set [3] deals with N9. In words: Inhibition of NLRP3 inflammasome activation in LPS/ATP-stimulated mouse N9 cells assessed as reduction in caspase-1 mRNA expression by measuring remaining activity at 20 uM by qRT-PCR analysis relative to control. Type of data set: cell-based. (In qPCR the cycle at which signal appears reflects the starting amount.)
Data set [4] relates to N9. In words: Inhibition of NLRP3 inflammasome activation in LPS/ATP-stimulated mouse N9 cells assessed as reduction in IL-1beta secretion at 10 to 20 uM preincubated with LPS for 4 hrs followed by compound addition for 30 mins and measured after ATP stimulation for 45 mins by ELISA. The format is cell-based. Conditions: dose 10-20 µM, time 75.0 min.
For data set [5], the system named is N9. In words: Inhibition of NLRP3 inflammasome activation in LPS/ATP-stimulated mouse N9 cells assessed as inhibition of GSDMD cleavage by DAPI staining based immunofluorescence analysis. The format is cell-based. The conditions noted are these: dose 10-20 µM.
Data set [6] concerns N9. In words: Inhibition of NLRP3 inflammasome activation in LPS/alpha-synuclein-stimulated mouse N9 cells assessed as inhibition of ASC speck formation preincubated with LPS for 4 hrs followed by compound addition by 30 mins and measured after 24 hrs of alpha-synuclein stimulation by DAPI staining based immunofluorescence analysis. The format is cell-based. The conditions noted are these: dose 10-20 µM, time 24.5 hrs.

The test system of data set [7] is N9. As to the kind of experiment: Effect on TNF-alpha mRNA expression in LPS/ATP-stimulated mouse N9 cells at 1 to 100 uM by qRT-PCR analysis. The conditions noted are these: dose 1-100 µM. Type of data set: functional, cell-based.
In data set [8] the test system is N9. In words: Inhibition of NLRP3 inflammasome activation mediated pyroptosis in LPS/alpha-synuclein-stimulated mouse N9 cells assessed as reduction in cell death at 5 to 30 uM by MTT assay. Type of data set: cell-based. The conditions noted are these: dose 5-30 µM.
Data set [9] deals with N9. In words: Inhibition of NLRP3 inflammasome activation in LPS/ATP-stimulated mouse N9 cells assessed as inhibition of ASC speck formation at 20 to 30 uM preincubated with LPS for 4 hrs followed by compound addition by 30 mins and measured after 45 mins of ATP stimulation by DAPI staining based immunofluorescence analysis. Type of data set: cell-based. The conditions noted are these: dose 20-30 µM, time 75.0 min.

The nature of data set [10]: Stability of compound in human serum at 100 uM measured over 24 hrs by RP-HPLC analysis. The format is ADME, cell-free.
Data set [11] relates to N9. As to the kind of experiment: Inhibition of NLRP3 inflammasome activation in LPS/amyloid-beta-stimulated mouse N9 cells assessed as reduction in IL-1beta secretion at 10 to 20 uM preincubated with LPS for 4 hrs followed by compound addition for 30 mins and measured after amyloid-beta stimulation for 24 hrs by ELISA. Type of data set: cell-based. The conditions noted are these: dose 10-20 µM, time 24.5 hrs.

Data set [12] has as its system N9. As to the kind of experiment: Inhibition of NLRP3 inflammasome activation mediated in LPS/amyloid-beta-stimulated mouse N9 cells assessed as increase in mitochondrial membrane potential by flow cytometric analysis. The format is cell-based. The conditions noted are these: dose 5-30 µM.

SMILES strings stand for the structures. Active and inactive are the calls of the source. No cut-off for these calls is given here. Residues, ends and D or L forms follow the SMILES beside them.

As for `CC[C@H](C)[C@H](NC(=O)[C@H](C)NC(=O)[C@H](C)NC(=O)[C@H](CC(C)C)NC(=O)[C@@H](NC(=O)[C@H](Cc1c[nH]c2ccccc12)NC(=O)[C@@H](N)C(C)C)[C@@H](C)CC)C(=O)N[C@@H](CC(N)=O)C(=O)N[C@@H](CCCNC(=N)N)C(=O)N[C@@H](CCCNC(=N)N)C(=O)O` (H-VWILAAINRR-OH), the inhibition result in data set [1], in data set [4], in data set [8] and in data set [9] was “Active” throughout. The inhibition result in [2], in data set [5], in [6], in data set [11] and in data set [12] was “Dose-dependent-effect” each time. In data set [3], the Activity is 15%. Moreover, the result in data set [7] was inactive. Moreover, in [10], the Stability entry was “Stable”.
